Reference: ChEMBL document CHEMBL6083293, “Novel Benzimidazole Derivatives as Potent Inhibitors of Microsomal Prostaglandin E2 Synthase 1 for the Potential Treatment of Inflammation, Pain, and Fever” (J Med Chem, 2024)
The source made the active and inactive calls. No cut-off for these calls is given here.

Legend:
[1] = Metabolic stability in guinea pig liver microsome assessed as half life; format: ADME, Cavia porcellus; conditions: liver microsomes
[2] = Metabolic stability in human liver microsome assessed as intrinsic clearance; format: ADME; conditions: liver microsomes, read-out: CLH
[3] = Metabolic stability in guinea pig liver microsome assessed as intrinsic clearance; format: ADME, Cavia porcellus; conditions: liver microsomes, read-out: CLH
[4] = Metabolic stability in human liver microsome assessed as half life; format: ADME; conditions: liver microsomes
[5] = Hepatotoxicity in guinea pig assessed as increase in ALP level in plasma at 10 mg/kg, po; format: toxicity, organism-based, Cavia porcellus; conditions: in vivo
Cavia porcellus [6] = test: Anti-inflammatory activity against carrageenan-induced paw edema in guinea pig assessed as reduction in paw swelling at 10 mg/kg, po measured at 240 mins; format: functional, organism-based
[7] = Toxicity in guinea pig assessed as increase in number of vacuolated hepatocytes at 10 mg/kg, po; format: organism-based, Cavia porcellus; conditions: in vivo
[8] = target: T1, Prostaglandin E synthase (Homo sapiens) (UniProt O14684); test: Inhibition of mPGES-1 in human M1-like MDM cells assessed as reduction in PGE2 formation at 10 uM; format: cell-based
T1 sequence (whole entry): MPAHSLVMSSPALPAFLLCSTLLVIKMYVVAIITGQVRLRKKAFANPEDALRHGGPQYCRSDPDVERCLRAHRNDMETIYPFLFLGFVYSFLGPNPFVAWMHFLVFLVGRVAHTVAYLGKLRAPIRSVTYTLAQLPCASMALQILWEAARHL

[9] = target: T1, Prostaglandin E synthase (Homo sapiens); test: Inhibition of mPGES-1 in human M1-like MDM cells assessed as reduction in TXB2 formation at 10 uM; format: cell-based
[10] = Toxicity in guinea pig assessed as increase in sinusoidal capillary diameter at 10 mg/kg, po; format: organism-based, Cavia porcellus; conditions: in vivo
Cavia porcellus [11] = test: Anti-hyperalgesic activity against carrageenan-induced guinea pig mechanical hyperalgesia model at 10 mg/kg, po; format: functional, organism-based
[12] = Volume of distribution at steady state in guinea pig at 2 mg/kg, iv; format: ADME, organism-based, Cavia porcellus; conditions: in vivo, read-out: Vdss
[13] = target: T2, Arachidonate 5-lipoxygenase-activating protein (Homo sapiens) (UniProt P20292); test: Inhibition of FLAP in calcium ionophore A23187-stimulated human Neutrophil cells at 1 uM preincubated for 15 mins followed by calcium ionophore A23187 stimulation for 10 mins by RP-HPLC analysis; format: cell-based; conditions: time 25.0 min
T2 sequence (whole entry): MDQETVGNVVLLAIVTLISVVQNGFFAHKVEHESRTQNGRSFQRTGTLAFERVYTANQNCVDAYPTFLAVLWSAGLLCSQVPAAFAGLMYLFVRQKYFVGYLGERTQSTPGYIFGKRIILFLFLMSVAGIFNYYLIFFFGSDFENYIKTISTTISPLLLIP

[14] = target: T3, Polyunsaturated fatty acid 5-lipoxygenase (Homo sapiens) (UniProt P09917); test: Inhibition of human recombinant 5-LOX expressed in Escherichia coli BL21(DE3) at 1 uM using arachidonic acid as substrate preincubated with compound for 15 mins followed by substrate and CaCl2 addition measured after 10 mins by RP-HPLC analysis; conditions: time 25.0 min
T3 sequence (whole entry): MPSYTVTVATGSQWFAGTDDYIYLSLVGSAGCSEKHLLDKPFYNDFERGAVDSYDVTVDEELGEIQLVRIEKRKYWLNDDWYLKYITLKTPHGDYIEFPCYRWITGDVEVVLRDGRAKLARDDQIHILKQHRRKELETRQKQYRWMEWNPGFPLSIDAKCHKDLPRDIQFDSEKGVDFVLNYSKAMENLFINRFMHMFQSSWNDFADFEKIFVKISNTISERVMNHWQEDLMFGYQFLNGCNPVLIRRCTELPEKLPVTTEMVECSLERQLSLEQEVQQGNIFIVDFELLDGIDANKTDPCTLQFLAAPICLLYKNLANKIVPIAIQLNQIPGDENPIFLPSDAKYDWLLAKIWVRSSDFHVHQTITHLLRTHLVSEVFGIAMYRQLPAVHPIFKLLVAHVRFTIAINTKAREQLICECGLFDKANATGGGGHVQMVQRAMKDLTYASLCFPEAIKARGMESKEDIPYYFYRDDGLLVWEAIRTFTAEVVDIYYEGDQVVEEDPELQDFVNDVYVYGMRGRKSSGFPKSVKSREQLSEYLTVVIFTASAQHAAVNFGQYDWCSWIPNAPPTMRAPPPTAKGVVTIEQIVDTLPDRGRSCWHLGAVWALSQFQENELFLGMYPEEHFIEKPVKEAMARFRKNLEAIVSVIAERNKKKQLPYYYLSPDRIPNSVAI

[15] = Hepatotoxicity in guinea pig assessed as effect on AST level in plasma at 30 mg/kg, po; format: toxicity, organism-based, Cavia porcellus; conditions: in vivo
[16] = target: T4, Prostaglandin G/H synthase 2 (Homo sapiens) (UniProt P35354); test: Inhibition of human recombinant COX-2 at 1 uM using arachidonic acid as substrate preincubated for 6 mins followed by substrate addition and measured after 10 mins by RP-HPLC analysis; conditions: time 16.0 min
T4 sequence (whole entry): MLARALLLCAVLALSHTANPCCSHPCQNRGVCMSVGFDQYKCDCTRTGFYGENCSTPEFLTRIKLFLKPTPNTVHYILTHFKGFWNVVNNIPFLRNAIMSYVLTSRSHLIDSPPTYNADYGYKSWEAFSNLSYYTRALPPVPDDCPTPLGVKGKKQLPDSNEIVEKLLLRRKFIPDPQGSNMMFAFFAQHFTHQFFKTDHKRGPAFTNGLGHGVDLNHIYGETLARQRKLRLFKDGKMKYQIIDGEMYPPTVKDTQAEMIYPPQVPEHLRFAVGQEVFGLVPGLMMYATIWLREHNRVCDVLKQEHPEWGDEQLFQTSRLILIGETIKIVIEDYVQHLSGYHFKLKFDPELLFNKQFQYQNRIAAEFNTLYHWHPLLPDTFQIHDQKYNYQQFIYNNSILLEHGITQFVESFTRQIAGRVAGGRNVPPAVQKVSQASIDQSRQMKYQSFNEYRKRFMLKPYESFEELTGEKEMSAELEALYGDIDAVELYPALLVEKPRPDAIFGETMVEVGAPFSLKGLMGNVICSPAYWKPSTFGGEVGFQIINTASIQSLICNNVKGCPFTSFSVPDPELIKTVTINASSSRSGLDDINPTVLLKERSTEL

Cavia porcellus [17] = test: Anti-hyperalgesic activity against carrageenan-induced guinea pig mechanical hyperalgesia model at 30 mg/kg, po; format: functional, organism-based
[18] = AUC (0 to infinity) in guinea pig at 20 mg/kg, po; format: ADME, organism-based, Cavia porcellus; conditions: in vivo
[19] = Initial plasma concentration in guinea pig at 2 mg/kg, iv; format: ADME, organism-based, Cavia porcellus
[20] = Half life in guinea pig at 2 mg/kg, iv; format: ADME, organism-based, Cavia porcellus; conditions: in vivo
Cavia porcellus [21] = test: Anti-inflammatory activity against carrageenan-induced paw edema in guinea pig assessed as inhibition of edema formation at 30 mg/kg, po measured at 240 mins; format: functional; conditions: 4 h
[22] = Hepatotoxicity in guinea pig assessed as increase in ALP level in plasma at 30 mg/kg, po; format: toxicity, organism-based, Cavia porcellus; conditions: in vivo
[23] = Cmax in guinea pig at 20 mg/kg, po; format: ADME, organism-based, Cavia porcellus; conditions: in vivo
[24] = Cytotoxicity against human MDM cells assessed as metabolic activity at 3 uM measured after 48 hrs by MTT assay; format: toxicity, cell-based
[25] = target: T5, Prostaglandin G/H synthase 1 (Ovis aries) (UniProt P05979); test: Inhibition of ovine COX-1 at 1 uM using arachidonic acid as substrate preincubated for 6 mins followed by substrate addition and measured after 10 mins by RP-HPLC analysis; conditions: time 16.0 min
T5 sequence (whole entry): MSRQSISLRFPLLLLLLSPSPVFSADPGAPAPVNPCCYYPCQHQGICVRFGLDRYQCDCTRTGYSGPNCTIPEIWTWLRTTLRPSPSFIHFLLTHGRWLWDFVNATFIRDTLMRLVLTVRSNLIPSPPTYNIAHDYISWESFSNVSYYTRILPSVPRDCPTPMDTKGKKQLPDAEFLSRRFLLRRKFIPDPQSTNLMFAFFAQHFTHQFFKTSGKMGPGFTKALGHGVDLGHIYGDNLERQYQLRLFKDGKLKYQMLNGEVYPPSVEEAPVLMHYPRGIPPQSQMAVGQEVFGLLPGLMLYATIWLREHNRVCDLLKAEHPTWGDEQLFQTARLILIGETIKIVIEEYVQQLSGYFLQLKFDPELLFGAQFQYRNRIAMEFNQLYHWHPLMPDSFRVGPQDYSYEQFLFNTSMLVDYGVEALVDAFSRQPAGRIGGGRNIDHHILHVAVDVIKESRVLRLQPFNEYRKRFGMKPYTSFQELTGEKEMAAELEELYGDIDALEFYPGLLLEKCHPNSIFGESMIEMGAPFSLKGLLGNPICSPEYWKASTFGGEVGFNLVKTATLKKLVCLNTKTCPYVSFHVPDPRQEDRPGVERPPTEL

[26] = Toxicity in guinea pig assessed as increase in sinusoidal capillary diameter at 30 mg/kg, po; format: organism-based, Cavia porcellus; conditions: in vivo
Cavia porcellus [27] = test: Anti-inflammatory activity against carrageenan-induced paw edema in guinea pig assessed as inhibition of edema formation at 30 mg/kg, po measured at 120 mins; format: functional, organism-based
[28] = Oral bioavailability in guinea pig at 20 mg/kg; format: ADME, organism-based, Cavia porcellus; conditions: in vivo
Cavia porcellus [29] = test: Anti-pyretic activity against LPS-induced guinea pig pyresis model assessed as increase in rectal temperature at 30 mg/kg, po measured at 180 to 240 mins; format: functional, organism-based; conditions: time 180-240 min
[30] = Toxicity in guinea pig assessed as increase in number of vacuolated hepatocytes at 30 mg/kg, po; format: organism-based, Cavia porcellus; conditions: in vivo
[31] = Cytotoxicity against human MDM cells assessed as LDH release at 3 uM measured after 3 hrs; format: toxicity, cell-based
[32] = Clearance in guinea pig at 2 mg/kg, iv; format: ADME, organism-based, Cavia porcellus; conditions: in vivo
[33] = Hepatotoxicity in guinea pig assessed as effect on ALT level in plasma at 30 mg/kg, po; format: toxicity, organism-based, Cavia porcellus; conditions: in vivo
[34] = Half life in guinea pig at 20 mg/kg, po; format: ADME, organism-based, Cavia porcellus; conditions: in vivo

Row | SMILES | half-life [1] [min] | microsomal CLint [2] [µL/min/mg] | microsomal CLint [3] [µL/min/mg] | half-life [4] [min] | Vd [12] [L/kg] | AUC(0-inf) [18] [ng·h/mL] | C0 [19] [ng/mL] | half-life [20] [min] | Cmax [23] [ng/mL] | bioavailability [28] [%] | clearance [32] [mL/min/kg] | half-life [34] [min] | also measured
1 | CC(C)(C(=O)NCc1ccc(Cl)c(C(=O)Nc2ccc(Cc3nc4cc(C(F)(F)F)ccc4[nH]3)cc2)c1)C(F)(F)F | 49.3 | 27.4 | 28.2 | 51.2 | – | – | – | – | – | – | – | – | –
2 | COc1ccc2c(c1)c(CC(=O)O)c(C)n2C(=O)c1ccc(Cl)cc1 [INDOMETHACIN] | – | – | – | – | – | – | – | – | – | – | – | – | Activity [5]: Toxic; Activity (Cavia porcellus [6]): Active; Activity [7]: Non-toxic; inhibition [8]: inactive; inhibition [9]: inactive; Activity [10]: Non-toxic; Activity (Cavia porcellus [11]): Active

More lines, main results first:

Row | half-life [1] [min] | microsomal CLint [2] [µL/min/mg] | microsomal CLint [3] [µL/min/mg] | half-life [4] [min] | Vd [12] [L/kg] | AUC(0-inf) [18] [ng·h/mL] | C0 [19] [ng/mL] | half-life [20] [min] | Cmax [23] [ng/mL] | bioavailability [28] [%] | clearance [32] [mL/min/kg] | half-life [34] [min] | SMILES | also measured
3 | 4.6 | 247 | 302 | 5.6 | – | – | – | – | – | – | – | – | CC(C)(C)C(=O)NCc1ccc(Cl)c(C(=O)Nc2ccc(-c3nc4cc(C(F)(F)F)ccc4[nH]3)cc2)c1 | –
4 | 185 | 45.2 | < 7.5 | 30.7 | 4.1 | 13800 | 878 | 234 | 1370 | 61 | 14.9 | 288 | O=C(Nc1ccc(-c2nc3cc(C(F)(F)F)ccc3[nH]2)cc1)c1cc(CNC(=O)C2(C(F)(F)F)CC2)ccc1Cl | inhibition [13]: Active; inhibition [14]: Active; Activity [15]: Non-toxic; inhibition [16]: Active; Activity (Cavia porcellus [17]): Active; inhibition in vivo at 30 mg/kg (Cavia porcellus [21]): 60%; Activity [22]: Non-toxic; Activity [24]: Non-toxic; inhibition [25]: Active; Activity [26]: Mild_effect; Activity (Cavia porcellus [27]): Active; Activity (Cavia porcellus [29]): Active; Activity [30]: Mild_effect; Activity [31]: Non-toxic; Activity [33]: Non-toxic
5 | 8.5 | 315 | 163 | 4.4 | 10 | 620 | 733 | 336 | 49 | 16 | 87.7 | 342 | O=C(Nc1ccc(-c2nc3cc(C(F)(F)F)ccc3[nH]2)cc1)c1cc(CNC(=O)C2(C(F)(F)F)CCC2)ccc1Cl | –
6 | 103 | 203 | 13.9 | 6.8 | – | – | – | – | – | – | – | – | CC(C)(C(=O)NCc1ccc(Cl)c(C(=O)Nc2ccc(-c3nc4cc(C(F)(F)F)ccc4[nH]3)cc2)c1)C(F)(F)F | –
